Among the data in article PMC7062867, “Targeting the Oncogenic TBX2 Transcription Factor With Chromomycins” (Frontiers in Chemistry, 2020) are Kd values, retold here.

What is called Kd is the free concentration of one partner at which half of the binding sites on the other are occupied at equilibrium, for simple one-to-one binding.

In experiment [1] the target is T1, TBX2 (Homo sapiens, UniProt Q13207).
T1 sequence (Q13207 94-287): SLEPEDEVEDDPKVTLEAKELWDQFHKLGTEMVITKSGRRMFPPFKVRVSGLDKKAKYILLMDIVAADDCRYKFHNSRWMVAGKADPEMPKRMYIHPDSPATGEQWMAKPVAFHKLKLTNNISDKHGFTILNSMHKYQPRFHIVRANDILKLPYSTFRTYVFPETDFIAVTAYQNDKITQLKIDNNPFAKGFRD
Put plainly: microscale thermophoresis; also recovered by reverse affinity chromatography with UPLC-MS. Format: binding. On the technique in general: In MST a laser heats a spot of the sample, and binding alters the fluorescence response.

The target of experiment [2] is T1, TBX2. As to the kind of experiment: microscale thermophoresis. Type of experiment: binding.

In the case of `CO[C@@H]1[C@H](O)C[C@@H](O[C@@H]2C[C@H](Oc3cc4cc5c(c(O)c4c(O)c3C)C(=O)C(O[C@H]3C[C@@H](O[C@H]4C[C@@H](O[C@H]6C[C@](C)(O)[C@@H](OC(=O)C(C)C)[C@H](C)O6)[C@H](O)[C@@H](C)O4)[C@H](O)[C@@H](C)O3)C([C@H](OC)C(=O)[C@@H](O)[C@@H](C)O)C5)O[C@H](C)[C@@H]2OC(C)=O)O[C@@H]1C` (some centres unmarked) [CA5, chromomycin A5], the Kd at TBX2 [1] worked out at 31.3 ± 23.3 µM.

`CO[C@@H]1[C@H](O)C[C@@H](O[C@@H]2C[C@H](Oc3cc4cc5c(c(O)c4c(O)c3C)C(=O)C(O[C@H]3C[C@@H](O[C@H]4C[C@@H](O[C@H]6C[C@](C)(O)[C@@H](OC(C)=O)[C@H](C)O6)[C@H](O)[C@@H](C)O4)[C@H](O)[C@@H](C)O3)C([C@H](OC)C(=O)[C@@H](O)[C@@H](C)O)C5)O[C@H](C)[C@@H]2OC(C)=O)O[C@@H]1C` (some centres unmarked) [CA6, chromomycin A6]: the Kd at TBX2 [2] worked out at 24.4 ± 13.6 µM.
